According to PMC6662822, “Rational drug-design approach supported with thermodynamic studies — a peptide leader for the efficient bi-substrate inhibitor of protein kinase CK2” (Scientific Reports, 2019):
Where a SMILES comes first, the peptide text is derived from it. Where no end group is shown, it is not given here. The star is where a group is joined. X1 = O=C(c1c(Br)c(Br)c(Br)c2nn[nH]c12)*

What was measured:
hCK2α [1] = molecular target: T1, hCK2α (Homo sapiens, UniProt P68400); test: ADP-Glo kinase assay, inhibitory activity towards human CK2α; format: biochemical
T1 construct: His-tag; made in house
T1 sequence (P68400 whole entry): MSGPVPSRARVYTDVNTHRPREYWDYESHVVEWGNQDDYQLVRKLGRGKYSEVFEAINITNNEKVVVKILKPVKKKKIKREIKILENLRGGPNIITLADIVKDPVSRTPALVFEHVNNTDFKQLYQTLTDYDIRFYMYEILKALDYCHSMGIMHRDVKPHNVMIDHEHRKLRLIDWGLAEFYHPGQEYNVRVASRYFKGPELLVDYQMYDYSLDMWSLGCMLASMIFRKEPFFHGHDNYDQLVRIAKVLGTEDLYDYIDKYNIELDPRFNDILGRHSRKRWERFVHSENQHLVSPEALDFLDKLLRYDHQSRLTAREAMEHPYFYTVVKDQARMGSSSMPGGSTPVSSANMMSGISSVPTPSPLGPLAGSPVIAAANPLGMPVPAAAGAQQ
Procedure: The ADP-Glo kinase assay (Promega) was used to measure the inhibition effect of the tested compounds. The kinase assay was carried in 96-well plate in volume of 25 μl in 20 mM Tris–HCl (pH 7.5) buffer, containing 100 ng hCK2α (1 μl), 10 μM CK2 substrate peptide […] (Biaffin GmbH & Co KG), 10 μM ATP, 20 mM MgCl2 and 2.5 μl of serially diluted ligand in DMSO. The reaction was initiated with enzyme in and kept going for 20 min at 30 °C. Reaction was stopped by adding 25 μl of ADP-Glo reagent. After incubation at room temperature for 40 min (to consume the remaining […]) 50 μl of kinase detection reagent were added and incubated for additional 30 minutes to produce luminescence signal. Luminescence was measured with The SpectraMax iD3 Multi-Mode Microplate Reader (Molecular Devices).

hCK2α [2] = molecular target: T1, hCK2α; test: Relaxation-filtered 1H NMR (transverse relaxation) of peptides in the presence of hCK2α; format: binding; details: for R2,f, relaxation rate in the presence of hCK2α: 25 μM hCK2α, 2.5 mM peptide (100-fold excess), 25 mM Tris-HCl pH 7, 0.25 M NaCl, 10% D2O, global two-exponential fit, higher = stronger binding; for R2,f, relaxation rate in the presence of hCK2α / R2,s, relaxation rate for the free peptide: 25 °C; for Relative binding to hCK2α, in words: relaxation-filtered NMR, compared with the other tested peptides; for R2,s, relaxation rate for the free peptide: same samples, slower component of the global two-exponential fit
Procedure: NMR samples containing tested peptides and hCk2α were prepared in 25 mM Tris–HCl (pH 7, 0.25 M NaCl) buffer with 10% D2O. The protein concentration was 25 μM, and a 100-fold peptide excess (2.5 mM) was used throughout the studies.
The scoring of the peptides’ binding affinities towards hCK2α was done according to the results of ^1H transverse (T2) relaxation filtering experiment. All spectra were recorded at 25 °C on Bruker Avance 500 NMR spectrometer (11.7 T) using 18 delays (0, 1, 2, 3, 4, 5, 10, 15, 20, 25, 30, 35, 40, 45, 50, 100, 150 and 200 ms). The spectra of 7500 Hz spectral width, 16k data points each, were collected using 16 scans with 2.0 s recycling delay preceded by 8 dummy scans.
NMR data were further processed and analyzed with the SpinWorks software (version 4.2.8.0), using cosine-squared window function and Gaussian filter resulting in 0.3 Hz broadening with no solvent filter applied prior to Fourier transformation. We analyzed ^1H transverse relaxation rates of selected nuclei representative for each type of amino acid residues present in the tested peptides, i.e Hγ of Glu (2.3ppm), Hβ of Asp (2.8ppm), Hβ of Ser (3.8ppm), Hγ(CH3) of Thr (1.1 ppm) and Hε of Lys (2.9ppm), respectively. Additionally, the resonance signals of amide protons (8.2–8.9ppm) were also analyzed. We performed the relaxation-filtered experiment, with the relaxation delay varying in the range of 1 to 200 ms. Variation in the intensity of particular resonance signals were analyzed using the model of two-exponential decay (1):1 y=A1⋅exp(t∗R2,f)+A2⋅exp(t∗R2,s)+y0 where R2,s and R2,f are the transverse relaxation rates of the free and the fraction of the virtually bound peptide, respectively. For each peptide the global optimization procedure was applied for all identified resonance signals.

Row | Molecule | R2,f, relaxation rate in the presence of hCK2α (hCK2α [2]) [s⁻¹] | R2,s, relaxation rate for the free peptide (hCK2α [2]) [s⁻¹] | other results
1 | O=C(O)c1c(Br)c(Br)c(Br)c2nn[nH]c12 [7-COOH-Br3Bt] |  |  | IC50 (hCK2α [1]; ADP-Glo, 100 ng hCK2α, 10 μM RRRDDDSDDD, 10 μM ATP, 20 mM MgCl2, pH 7.5, 20 min 30 °C, global fit of three independent experiments): 8 ± 6.3 µM
2 | NC(=O)[C@H](CCC(=O)O)NC(=O)[C@H](CCC(=O)O)NC(=O)[C@H](CCC(=O)O)NC(=O)[C@H](CO)NC(=O)[C@H](CCC(=O)O)NC(=O)[C@@H](N)CCCCNC(=O)c1c(Br)c(Br)c(Br)c2nn[nH]c12 [bi-substrate inhibitor] (H-K(X1)ESEEE-NH2) |  |  | Enhancement of inhibitory activity versus low-mass precursor 7-COOH-Br3Bt (hCK2α [1]; ratio of IC50 values): over 10 fold
3 | DDTDDD-NH2 | 7.1 ± 0.8 |  | Relative binding to hCK2α, in words (hCK2α [2]): binds visibly weaker
4 | DESEEE-NH2 [peptide named only in b23, possibly a misprint of DETEEE-NH2] |  |  | Relative binding to hCK2α, in words (hCK2α [2]): lower affinity
5 | DETEEE-NH2 | 10.4 ± 1.6 | 2.2 ± 0.6 | 
6 | EDTEEE-NH2 | 14.9 ± 2.5 | 1.5 ± 0.7 | 
7 | EETDEE-NH2 | 15.4 ± 2.1 | 2.3 ± 0.5 | 
8 | EETEDE-NH2 | 17.2 ± 4.8 | 3.7 ± 0.5 | 
9 | EETEED-NH2 | 16.1 ± 2.3 | 2.2 ± 0.5 | 
